Assay results published in US20240237643A1, “COMPOSITIONS WITH VIRUCIDAL AND/OR ANTIVIRAL ACTIVITY” (priority 2020, published 2024).

Legend:
Assay in all cases: Virucidal activity, quantitative suspension test DIN EN 14476
Type in all cases: cell-based
Influenza virus (H1N1) = system: Influenza virus (H1N1)
[1] = system: Human respiratory syncytial virus (HRSV)
Coronavirus (MHV-3) = system: Coronavirus (MHV-3)
Procedure: Testing was conducted over a period of 1 to 10 minutes. Activity against the following viruses was determined: • Coronavirus (MHV-3) • Influenza virus (H1N1) • Herpes simplex virus (HV) • Human respiratory syncytial virus (HRSV)
In this context (+) means that more than 99.99% of all viruses were inactivated; this is equivalent to a reduction factor of 10,000.

[2] = system: Herpes simplex virus (HV)
[3] = 33 wt.-percent in water, 10 min
[4] = 0.1 wt.-percent in water, 1 min
[5] = 0.1 wt.-percent in water, 10 min
[6] = 10 wt.-percent in water, 10 min

SMILES | Virucidal activity H1N1 (Influenza virus (H1N1); 33 wt.-percent in water, 1 min) | Virucidal activity H1N1 (Influenza virus (H1N1); [3]) | Virucidal activity HRSV ([1]; 33 wt.-percent in water, 1 min) | Virucidal activity HRSV [1, 3] | Virucidal activity MHV-3 (Coronavirus (MHV-3); 33 wt.-percent in water, 1 min) | Virucidal activity MHV-3 (Coronavirus (MHV-3); [3]) | Virucidal activity HV ([2]; 33 wt.-percent in water, 1 min) | Virucidal activity HV [2, 3] | Virucidal activity H1N1 (Influenza virus (H1N1); [4]) | Virucidal activity H1N1 (Influenza virus (H1N1); [5]) | Virucidal activity H1N1 (Influenza virus (H1N1); 1 wt.-percent in water, 1 min) | Virucidal activity H1N1 (Influenza virus (H1N1); 1 wt.-percent in water, 10 min) | Virucidal activity H1N1 (Influenza virus (H1N1); 10 wt.-percent in water, 1 min) | Virucidal activity H1N1 (Influenza virus (H1N1); [6]) | Virucidal activity HRSV [1, 4] | Virucidal activity HRSV [1, 5] | Virucidal activity HRSV ([1]; 1 wt.-percent in water, 1 min) | Virucidal activity HRSV ([1]; 1 wt.-percent in water, 10 min) | Virucidal activity HRSV ([1]; 10 wt.-percent in water, 1 min) | Virucidal activity HRSV [1, 6] | further results
CCCC(O)CO (centres unmarked) [1,2-pentanediol] | (+) ((+) means that more than 99.99% of all viruses were inactivated; this is equivalent to a reduction factor of 10,000) | (+) ((+) means that more than 99.99% of all viruses were inactivated; this is equivalent to a reduction factor of 10,000) | (+) ((+) means that more than 99.99% of all viruses were inactivated; this is equivalent to a reduction factor of 10,000) | (+) ((+) means that more than 99.99% of all viruses were inactivated; this is equivalent to a reduction factor of 10,000) | (+) ((+) means that more than 99.99% of all viruses were inactivated; this is equivalent to a reduction factor of 10,000) | (+) ((+) means that more than 99.99% of all viruses were inactivated; this is equivalent to a reduction factor of 10,000) | (+) ((+) means that more than 99.99% of all viruses were inactivated; this is equivalent to a reduction factor of 10,000) | (+) ((+) means that more than 99.99% of all viruses were inactivated; this is equivalent to a reduction factor of 10,000) |  |  |  |  |  |  |  |  |  |  |  |  | Virucidal activity H1N1 (Influenza virus (H1N1); 33 wt.-percent in water, 5 min): (+) ((+) means that more than 99.99% of all viruses were inactivated; this is equivalent to a reduction factor of 10,000); Virucidal activity HRSV ([1]; 33 wt.-percent in water, 5 min): (+) ((+) means that more than 99.99% of all viruses were inactivated; this is equivalent to a reduction factor of 10,000); Virucidal activity MHV-3 (Coronavirus (MHV-3); 33 wt.-percent in water, 5 min): (+) ((+) means that more than 99.99% of all viruses were inactivated; this is equivalent to a reduction factor of 10,000); Virucidal activity HV ([2]; 33 wt.-percent in water, 5 min): (+) ((+) means that more than 99.99% of all viruses were inactivated; this is equivalent to a reduction factor of 10,000)
CCCCCCC(O)CO (centres unmarked) [1,2-octanediol] |  | (+) ((+) means that more than 99.99% of all viruses were inactivated; this is equivalent to a reduction factor of 10,000) |  | (+) ((+) means that more than 99.99% of all viruses were inactivated; this is equivalent to a reduction factor of 10,000) |  | (+) ((+) means that more than 99.99% of all viruses were inactivated; this is equivalent to a reduction factor of 10,000) |  | (+) ((+) means that more than 99.99% of all viruses were inactivated; this is equivalent to a reduction factor of 10,000) |  |  |  |  |  |  |  |  |  |  |  |  | 
CCCCCCCCC(O)CO (centres unmarked) [1,2-decanediol] |  |  |  |  |  |  |  |  | (+) ((+) means that more than 99.99% of all viruses were inactivated; this is equivalent to a reduction factor of 10,000) | (+) ((+) means that more than 99.99% of all viruses were inactivated; this is equivalent to a reduction factor of 10,000) | (+) ((+) means that more than 99.99% of all viruses were inactivated; this is equivalent to a reduction factor of 10,000) | (+) ((+) means that more than 99.99% of all viruses were inactivated; this is equivalent to a reduction factor of 10,000) | (+) ((+) means that more than 99.99% of all viruses were inactivated; this is equivalent to a reduction factor of 10,000) | (+) ((+) means that more than 99.99% of all viruses were inactivated; this is equivalent to a reduction factor of 10,000) | (+) ((+) means that more than 99.99% of all viruses were inactivated; this is equivalent to a reduction factor of 10,000) | (+) ((+) means that more than 99.99% of all viruses were inactivated; this is equivalent to a reduction factor of 10,000) | (+) ((+) means that more than 99.99% of all viruses were inactivated; this is equivalent to a reduction factor of 10,000) | (+) ((+) means that more than 99.99% of all viruses were inactivated; this is equivalent to a reduction factor of 10,000) | (+) ((+) means that more than 99.99% of all viruses were inactivated; this is equivalent to a reduction factor of 10,000) | (+) ((+) means that more than 99.99% of all viruses were inactivated; this is equivalent to a reduction factor of 10,000) | Virucidal activity MHV-3 (Coronavirus (MHV-3); [4]): (+) ((+) means that more than 99.99% of all viruses were inactivated; this is equivalent to a reduction factor of 10,000); Virucidal activity MHV-3 (Coronavirus (MHV-3); [5]): (+) ((+) means that more than 99.99% of all viruses were inactivated; this is equivalent to a reduction factor of 10,000); Virucidal activity MHV-3 (Coronavirus (MHV-3); 1 wt.-percent in water, 1 min): (+) ((+) means that more than 99.99% of all viruses were inactivated; this is equivalent to a reduction factor of 10,000); Virucidal activity MHV-3 (Coronavirus (MHV-3); 1 wt.-percent in water, 10 min): (+) ((+) means that more than 99.99% of all viruses were inactivated; this is equivalent to a reduction factor of 10,000); Virucidal activity MHV-3 (Coronavirus (MHV-3); 10 wt.-percent in water, 1 min): (+) ((+) means that more than 99.99% of all viruses were inactivated; this is equivalent to a reduction factor of 10,000); Virucidal activity MHV-3 (Coronavirus (MHV-3); [6]): (+) ((+) means that more than 99.99% of all viruses were inactivated; this is equivalent to a reduction factor of 10,000); Virucidal activity HV [2, 4]: (+) ((+) means that more than 99.99% of all viruses were inactivated; this is equivalent to a reduction factor of 10,000); Virucidal activity HV [2, 5]: (+) ((+) means that more than 99.99% of all viruses were inactivated; this is equivalent to a reduction factor of 10,000); Virucidal activity HV ([2]; 1 wt.-percent in water, 1 min): (+) ((+) means that more than 99.99% of all viruses were inactivated; this is equivalent to a reduction factor of 10,000); Virucidal activity HV ([2]; 1 wt.-percent in water, 10 min): (+) ((+) means that more than 99.99% of all viruses were inactivated; this is equivalent to a reduction factor of 10,000); Virucidal activity HV ([2]; 10 wt.-percent in water, 1 min): (+) ((+) means that more than 99.99% of all viruses were inactivated; this is equivalent to a reduction factor of 10,000); Virucidal activity HV [2, 6]: (+) ((+) means that more than 99.99% of all viruses were inactivated; this is equivalent to a reduction factor of 10,000)
Cc1cc(O)ccc1C(C)C [4-isopropyl-3-methylphenol] |  |  |  |  |  |  |  |  | (+) ((+) means that more than 99.99% of all viruses were inactivated; this is equivalent to a reduction factor of 10,000) | (+) ((+) means that more than 99.99% of all viruses were inactivated; this is equivalent to a reduction factor of 10,000) | (+) ((+) means that more than 99.99% of all viruses were inactivated; this is equivalent to a reduction factor of 10,000) | (+) ((+) means that more than 99.99% of all viruses were inactivated; this is equivalent to a reduction factor of 10,000) | (+) ((+) means that more than 99.99% of all viruses were inactivated; this is equivalent to a reduction factor of 10,000) | (+) ((+) means that more than 99.99% of all viruses were inactivated; this is equivalent to a reduction factor of 10,000) | (+) ((+) means that more than 99.99% of all viruses were inactivated; this is equivalent to a reduction factor of 10,000) | (+) ((+) means that more than 99.99% of all viruses were inactivated; this is equivalent to a reduction factor of 10,000) | (+) ((+) means that more than 99.99% of all viruses were inactivated; this is equivalent to a reduction factor of 10,000) | (+) ((+) means that more than 99.99% of all viruses were inactivated; this is equivalent to a reduction factor of 10,000) | (+) ((+) means that more than 99.99% of all viruses were inactivated; this is equivalent to a reduction factor of 10,000) | (+) ((+) means that more than 99.99% of all viruses were inactivated; this is equivalent to a reduction factor of 10,000) | Virucidal activity MHV-3 (Coronavirus (MHV-3); [4]): (+) ((+) means that more than 99.99% of all viruses were inactivated; this is equivalent to a reduction factor of 10,000); Virucidal activity MHV-3 (Coronavirus (MHV-3); [5]): (+) ((+) means that more than 99.99% of all viruses were inactivated; this is equivalent to a reduction factor of 10,000); Virucidal activity MHV-3 (Coronavirus (MHV-3); 1 wt.-percent in water, 1 min): (+) ((+) means that more than 99.99% of all viruses were inactivated; this is equivalent to a reduction factor of 10,000); Virucidal activity MHV-3 (Coronavirus (MHV-3); 1 wt.-percent in water, 10 min): (+) ((+) means that more than 99.99% of all viruses were inactivated; this is equivalent to a reduction factor of 10,000); Virucidal activity MHV-3 (Coronavirus (MHV-3); 10 wt.-percent in water, 1 min): (+) ((+) means that more than 99.99% of all viruses were inactivated; this is equivalent to a reduction factor of 10,000); Virucidal activity MHV-3 (Coronavirus (MHV-3); [6]): (+) ((+) means that more than 99.99% of all viruses were inactivated; this is equivalent to a reduction factor of 10,000); Virucidal activity HV [2, 4]: (+) ((+) means that more than 99.99% of all viruses were inactivated; this is equivalent to a reduction factor of 10,000); Virucidal activity HV [2, 5]: (+) ((+) means that more than 99.99% of all viruses were inactivated; this is equivalent to a reduction factor of 10,000); Virucidal activity HV ([2]; 1 wt.-percent in water, 1 min): (+) ((+) means that more than 99.99% of all viruses were inactivated; this is equivalent to a reduction factor of 10,000); Virucidal activity HV ([2]; 1 wt.-percent in water, 10 min): (+) ((+) means that more than 99.99% of all viruses were inactivated; this is equivalent to a reduction factor of 10,000); Virucidal activity HV ([2]; 10 wt.-percent in water, 1 min): (+) ((+) means that more than 99.99% of all viruses were inactivated; this is equivalent to a reduction factor of 10,000); Virucidal activity HV [2, 6]: (+) ((+) means that more than 99.99% of all viruses were inactivated; this is equivalent to a reduction factor of 10,000)
CCCCC(O)CO (centres unmarked) [1,2-hexanediol] | (+) ((+) means that more than 99.99% of all viruses were inactivated; this is equivalent to a reduction factor of 10,000) |  | (+) ((+) means that more than 99.99% of all viruses were inactivated; this is equivalent to a reduction factor of 10,000) |  | (+) ((+) means that more than 99.99% of all viruses were inactivated; this is equivalent to a reduction factor of 10,000) |  | (+) ((+) means that more than 99.99% of all viruses were inactivated; this is equivalent to a reduction factor of 10,000) |  |  |  |  |  |  |  |  |  |  |  |  |  | 
